Results as given in patent publication EP4316456A1, “BIOLOGICALLY ACTIVE QUADROCOMPLEX FOR REGULATING THE BIODIVERSITY OF SKIN MICROBIOTA” (SkyLab AG, priority 2021, dated 2022).

What was measured:
[1] = octanol to water; average logP for the essential oil; source not stated; cited from earlier work
Candida albicans [2] = test: Effect of antibacterial basic samples on growth of hand skin microflora, double dilution method; format: cell-based; set-up: key: ++: no growth; +: depressed growth in most areas; +: retarded growth in some areas; confluent growth-of test microorganisms; conditions: 5% solution of sample in purified water with 0.5% Tween 80, 30 minutes; 48 hours at 37 degrees Celsius
Method: (§1) A mixture consisting of purified water and 0.5% Tween 80 was used as a base to include the components of the complex. Samples were prepared using a magnetic stirrer by solubilizing the components of the quad complex in Tween 80 and gradually introducing them into purified water at 350 rpm. The stability of the samples was evaluated visually, by the absence of separation of the fatty phase from the aqueous solution. 2 strains of microorganisms of normal microflora, widely represented on the skin of the hands, were selected: Staphylococcus epidermidis and Micrococcus luteus. Microorganisms of transient opportunistic microflora present on the skin of the hands were also selected: Staphylococcus aureus, Escherichia coli and fungi of Candida albicans genus. Microorganisms were obtained by washing from the skin of the hands of subjects or using standard strains, cultivating isolated microorganisms and counting the number of grown colonies of microorganisms. The method of the analysis is based on the double dilution method and consists in preparing a suspension of bacterial cells of selected microorganisms (S. aureus, E. coli, C. albicans, S. epidermidis, M. luteus) separately at a concentration of 1×10^9 cells/ml. Next, 0.2 ml of a suspension of bacterial cells is added to 1.8 ml of a 5% solution of antibacterial components. In 30 minutes, 1 ml of the resulting mixture is added to a test tube with 9 ml of sterile saline 0.9%. In 15 more minutes, a series of dilutions is prepared in sterile saline to a concentration of 10^3 cells/ml. 0.1 ml of a solution of the initial concentration and successive dilutions is added to the surface of cups with a special nutrient medium for the growth of selected microorganisms separately. The cultures are incubated for 48 hours at 37 degrees Celsius and the colonies are counted by the standard method. The parameter for the overall assessment of the effect of the biologically active quad complex on the growth of representatives of the normal microflora was the presence or no growth of microorganisms, determined by the microbiologist based on the results of the study. The indicator of bacterial growth allows evaluating the effect of microflora on microorganisms and drawing a conclusion about the effect of the quad complex on the microflora of hand skin. The general positive trend in the use of the components of the claimed quad complex is the absence of a negative effect on the normal microflora of the skin of the hands and a pronounced antibacterial effect on the transient microflora, which will ensure the maintenance of natural non-pathogenic microflora for dermatological comfort and hygiene of hand skin.

Escherichia coli [3] = test: as above; format: cell-based; set-up: key: ++: no growth; +: depressed growth in most areas; +: retarded growth in some areas; confluent growth-of test microorganisms; conditions: 5% solution of sample in purified water with 0.5% Tween 80, 30 minutes; 48 hours at 37 degrees Celsius
Method: as §1

Micrococcus luteus [4] = test: as above; format: cell-based; set-up: key: ++: no growth; +: depressed growth in most areas; +: retarded growth in some areas; confluent growth-of test microorganisms; conditions: 5% solution of sample in purified water with 0.5% Tween 80, 30 minutes; 48 hours at 37 degrees Celsius
Method: as §1

Staphylococcus aureus [5] = test: as above; format: cell-based; set-up: key: ++: no growth; +: depressed growth in most areas; +: retarded growth in some areas; confluent growth-of test microorganisms; conditions: 5% solution of sample in purified water with 0.5% Tween 80, 30 minutes; 48 hours at 37 degrees Celsius
Method: as §1

[6] = test system: Staphylococcus epidermidis; test: as above; format: cell-based; set-up: key: ++: no growth; +: depressed growth in most areas; +: retarded growth in some areas; confluent growth-of test microorganisms; conditions: 5% solution of sample in purified water with 0.5% Tween 80, 30 minutes; 48 hours at 37 degrees Celsius
Method: as §1

Candida albicans [7] = test: as above; format: cell-based; set-up: key: +: confluent growth-of test microorganisms as in the control; +: retarded or depressed growth; -: no growth; conditions: 5% solution of sample in purified water with 0.5% Tween 80, 30 minutes; 48 hours at 37 degrees Celsius
Method: as §1

Escherichia coli [8] = test: as above; format: cell-based; set-up: key: +: confluent growth-of test microorganisms as in the control; +: retarded or depressed growth; -: no growth; conditions: 5% solution of sample in purified water with 0.5% Tween 80, 30 minutes; 48 hours at 37 degrees Celsius
Method: as §1

Micrococcus luteus [9] = test: as above; format: cell-based; set-up: key: +: confluent growth-of test microorganisms as in the control; +: retarded or depressed growth; -: no growth; conditions: 5% solution of sample in purified water with 0.5% Tween 80, 30 minutes; 48 hours at 37 degrees Celsius
Method: as §1

Staphylococcus aureus [10] = test: as above; format: cell-based; set-up: key: +: confluent growth-of test microorganisms as in the control; +: retarded or depressed growth; -: no growth; conditions: 5% solution of sample in purified water with 0.5% Tween 80, 30 minutes; 48 hours at 37 degrees Celsius
Method: as §1

[11] = test system: Staphylococcus epidermidis; test: as above; format: cell-based; set-up: key: +: confluent growth-of test microorganisms as in the control; +: retarded or depressed growth; -: no growth; conditions: 5% solution of sample in purified water with 0.5% Tween 80, 30 minutes; 48 hours at 37 degrees Celsius
Method: as §1

Compound	logP [1]	growth of test-strain (Candida albicans [2])	growth of test-strain (Escherichia coli [3])	growth of test-strain (Micrococcus luteus [4])	growth of test-strain (Staphylococcus aureus [5])	growth of test-strain [6]	growth of test-strain (Candida albicans [7])	growth of test-strain (Escherichia coli [8])	growth of test-strain (Micrococcus luteus [9])	growth of test-strain (Staphylococcus aureus [10])	growth of test-strain [11]
CC12CCC(CC1)C(C)(C)O2 [1,8-cineol 0,15%, 1,8-cineol]	2.82	-	+	-	-	-					
CCO [Ethyl alcohol 96%, Ethyl alcohol]							++	++	++	++	++
Benzalkonium chloride [Benzalkonium chloride 0,1%]							++	++	++	++	++
OO [Hydrogen peroxide 3%, Hydrogen peroxide]		+	+	+	+	+					
CC(C)=CCC[C@](C)(O)[C@@H]1CC=C(C)CC1 [Alpha-bisabolol 0,10%, alpha-bisabolol]	3.80	-	+	-	+	-					
